Where “and” joins values, the source holds several entries; their conditions need not be identical. Equal entries are not always repeated. Entries after “also recorded” stand apart in the source; their conditions may differ. Where two headings read alike, the source gives them in different places.
What was measured:
[1] = target: T1, Q58-htn 1–171 amino terminal fragment (GST-Q58-Htn cleaved by thrombin) (Homo sapiens, UniProt P42858, INS38QQQQQQQQQQQQQQQQQQQQQQQQQQQQQQQQQQQQQ); test: in vitro aggregation of amino-terminal mutant huntingtin fragment (filter retardation dot blot); assay type: biochemical
T1 construct: the amino terminal fragment 1–171 of mutant huntingtin; GST (N, cleaved yes); made in house; host or cells: E. coli BL21 (pGEX-2TK vector)
Method: In our primary screen (Figure 1A), GST-Q58-Htn (20 μg/ml) was mixed with thrombin (0.5 unit/μg GST-Q58-Htn) and immediately dispensed into a 96-well PCR plate containing compounds diluted to a final concentration of 100 μM. Incubation was continued for 24 hours at room temperature to allow aggregate formation. The aggregation was stopped by 2% SDS/10 mM 2-mercaptoethanol followed by boiling for 5 minutes. The mixture was filtered through a cellulose acetate membrane by using a 96-well ELIFA dot blot apparatus. The aggregates retained on the membrane were detected and quantified by immunoblotting and subsequent image analysis. Congo Red, a known huntingtin aggregation inhibitor, was used as the positive control.
A recombinant pGEX-2TK expression vector with cDNA fragment encoding amino terminal 171 amino acids of human huntingtin with a polyglutamine tract of 58 was used to prepare the GST-Q58-htn fusion protein. The GST-Q58-htn was overexpressed in BL21 cells and purified by affinity chromatography over glutathione-sepharose 4B beads (Amersham Pharmacia Biotech). The purified proteins were stored at concentration of 2.0 mg/ml at -80°C.
For primary screening of the chemical library, 1 μl of 4.0 mM small compound stock, diluted from the original plates, was placed in wells of 96-well plates. The fusion protein, GST-Q58-Htn was mixed with thrombin (0.5 unit/1 μg protein) at a concentration of 20 μg/ml in a buffer of 50 mM Tris-HCl, pH 8.0, 100 mM NaCl, 2.5 mM CaCl2, 1.0 mM EDTA. The mixture was immediately distributed into the 96-well plates containing diluted compounds at 40 μl/well and mixed well. The final concentration of the small compounds was 100 μM. After 24 hours incubation at room temperature, the reaction was stopped by adding 10 μl of 10% SDS/50 mM 2-mercaptoethanol to each well followed by boiling in a PCR machine for 5 minutes. The mixture from each well was filtered through a cellulose acetate membrane ((0.2 μm, GE Osmonics labstore, Minnetonka MN) by using a 96-well ELIFA (Pierce Biotech). The aggregates retained on the membrane were detected by a specific anti-huntingtin antibody, HP1 (diluted 1:1000), followed by incubation with peroxidase conjugated anti-rabbit antibody (diluted 1:10,000, Sigma). Signals from SDS insoluble aggregates were scanned and quantified by using ImageMaster Totalab image analysis software (Amersham Pharmacia Biotech). In the secondary screening, all steps were the same except the final concentration of compound in each well was reduced to 10 μM and the GST-Q58-Htn/thrombin mixture was preincubated for 45-minutes at room temperature and clarified by centrifugation at 28,000 × g for 30 minutes before being added to the test wells. For IC50 determinations, the in vitro aggregation assay and signal quantification were performed as in the second screening but varying the final concentration of input drug. The data for each inhibitor were obtained from at least two independent experiments in which every sample was analyzed in triplicate with Prism 3.0 software (Graphpad Software, Inc., San Diego, CA).

[2] = system: ST111/111 striatal cells (Hdh^Q111/Q111, full-length mutant huntingtin); test: striatal cell line assay: huntingtin localization phenotype (AP229 immunostaining, confocal); assay type: cell-based, mouse; conditions: for Percentage of ST111/111 cells showing cytoplasmic/nuclear huntingtin localization comparable to wild-type ST7/7 cells: 30 min at 33°C, mean ± SD of 5–10 fields
Description: To test the hypothesis that compounds, which inhibit the aggregation-promoting property of amino-terminal mutant huntingtin will also rescue effects of full-length mutant huntingtin, we tested the top six inhibitors in a striatal cell-based assay. Mutant Hdh^Q111/Q111 and wild-type Hdh^Q7/Q7 striatal cell lines, […], which have been prepared by transformation with a tsSV40 vector, can be propagated in culture and used for cytological and biochemical comparisons. These cells express full-length mutant or wild-type huntingtin, respectively, with no evidence of truncated amino-terminal fragments, no formation of polyglutamine aggregates and no cell death-producing toxicity. However, like the striatal neurons of Hdh^Q111/Q111 knock-in mice, the ST111/111 cells show nuclear staining of huntingtin when tested with an amino-terminal huntingtin antibody that is sensitive to the conformation of the full-length protein (Figure 5A). By contrast, ST7/7 cells expressing wild type huntingtin show both nuclear and cytoplasmic immunostaining with the same huntingtin antibody (Figure 5A).
Conditionally immortalized wild-type Hdh^Q7/Q7 striatal neuronal progenitor cells (ST7/7) expressing endogenous normal huntingtin, and homozygous Hdh^Q111/Q111 striatal neuronal progenitor cells (ST111/111), expressing endogenous mutant huntingtin with 111-glutamines, have been described previously. The striatal cell lines were grown at 33°C in Dulbecco's modified Eagle's medium (DMEM) supplemented with 10 % fetal bovine serum (FBS), 1% nonessential aminoacids, 2 mM L-glutamine and 400 μg/ml G418 (Geneticin (GIBCO-BRL, Life Technologies, Gaithersburg, MD).
(§1) In the immunofluorescence and confocal analysis experiment, wild-type ST7/7 and homozygous mutant ST111/111 cells, grown to confluence on glass coverslips, were treated with 6 different drugs at four different concentrations (0.5, 5, 10 or 50 μM) for 30 min at 33°C. After the treatment the drugs were removed and the cells washed twice in PBS. The cells were then fixed by incubation in 4% formaldehyde for 15 min, permeabilized by 0.1% Triton X-100 for 5 min and incubated for 30 min with blocking solution (1% bovine albumin in PBS). Coverslips were then incubated in primary antibody (AP229 1:500 dilution) for 2 h at room temperature and washed three times in PBS before a further 1 h in blocking solution containing the secondary antibody (goat anti-rabbit Cy3, Jackson ImmunoResearch, West Grove, PA. USA). After three washes in PBS coverslips were mounted onto glass slides with Vectashield (Burlingame, CA. USA) and the images were analyzed with a laser confocal microscope (Bio-Rad, Hercules, CA. USA) using 20 × objective. Cell death was quantified by scoring the percentage of cells with apoptotic nuclear morphology, i.e. condensed or fragmented nuclei, under the confocal microscope. In each case five to ten randomly selected fields were counted, comprising at least 200 cells, and each experiment was repeated 3 times.

[3] = system: ST111/111 striatal cells; assay type: cell-based; conditions: 30 min at 33°C
Method: as §1, with “After” for “In the immunofluorescence and confocal analysis experiment, wild-type ST7/7 and homozygous mutant ST111/111 cells, grown to confluence on glass coverslips, were treated with 6 different drugs at four different concentrations (0.5, 5, 10 or 50 μM) for 30 min at 33°C. After”

[4] = system: PC12 cells expressing huntingtin exon 1 encoding 103 glutamines; set-up: method as in PMID 15262266; conditions: cited from earlier work
[5] = system: HEK 293T cells expressing androgen receptor with 112 glutamines; conditions: cited from earlier work

T1 sequence (P42858 with tags, fused parts or gaps with the stated changes limits assumed): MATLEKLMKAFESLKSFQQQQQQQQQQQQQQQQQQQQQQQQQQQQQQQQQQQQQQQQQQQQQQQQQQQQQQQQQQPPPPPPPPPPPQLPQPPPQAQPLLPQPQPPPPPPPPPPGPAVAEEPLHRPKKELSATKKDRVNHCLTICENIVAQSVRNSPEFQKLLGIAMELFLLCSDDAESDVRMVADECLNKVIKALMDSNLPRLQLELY

CC1=C(O)C(=O)C=C2C1=CC=C1[C@@]2(C)CC[C@@]2(C)[C@@H]3C[C@](C)(C(=O)O)CC[C@]3(C)CC[C@]12C [Celastrol]
IC50 [1]: < 6 µM and < 15 µM and 3.55 µM | residual aggregate formed ([1]; at the maximum concentration of the dose response (0.01 μM to 500 μM)): approximately 20% | Percentage of ST111/111 cells showing cytoplasmic/nuclear huntingtin localization comparable to wild-type ST7/7 cells ([2]; 0.5 μM): 8.7 ± 8.7% | Percentage of ST111/111 cells showing cytoplasmic/nuclear huntingtin localization comparable to wild-type ST7/7 cells ([2]; 5 μM): 69.2 ± 3.8% | Percentage of ST111/111 cells showing cytoplasmic/nuclear huntingtin localization comparable to wild-type ST7/7 cells ([2]; 10 μM): 78.1 ± 3.5% | reversal of the mutant huntingtin localization phenotype (in words) ([2]; 0.5–50 μM tested): reversed the mutant phenotype in a dose-dependent manner; also recorded: effective | percentage of dead cells ([3]; 5 μM): 1% | percentage of dead cells ([3]; 10 μM): 4% | protection against polyglutamine toxicity [4]: partially protective | effect on caspase 3 activation [5]: blocked caspase 3 activation | toxicity in the HEK 293T assay [5]: showed toxicity

From PMC548150, “Reversal of a full-length mutant huntingtin neuronal cell phenotype by chemical inhibitors of polyglutamine-mediated aggregation” (BMC Neuroscience, 2005)
